{
  "source": "patent US4578400A",
  "about": "“Therapeutic composition and method for treatment of cardiovascular diseases” (priority 1982, dated 1986)",
  "key": {"[1]": {"test_system": "chloroform-induced arrhythmia (ventricular fibrillation)", "assay": "Effect on chloroform-induced arrhythmia", "format": "in vivo, male ddy mice", "details": "for Percent occurrence of ventricular fibrillation: 15 min before chloroform, control 100", "excerpt": "When they stopped breathing, they were thoracotomized to examine the occurrence of ventricular fribrillation. The results are noted in Table 2 as percent occurrence of ventricular fibrillation."}, "[2]": {"test_system": "ouabain induced arrhythmia", "assay": "Effect on ouabain induced arrhythmia", "format": "in vivo, male hartley guinea pigs", "details": "for relative time for extrasystole to occur / relative time for cardiac arrest to occur / relative time for ventricular fibrillation to occur: control = 100", "excerpt": "Effect on ouabain induced arrhythmia\nThe procedure described in Matsubara et al. (Folia Pharmacologica Japonica, 72, 557-571, 1976) was followed.\nMale hartley guinea pigs were divided into groups of 8 animals and anesthetized with intraperitoneal urethane. Three groups were orally administered 5--HDA--Na, 5--HDAE and 5--HDA--DHP dissolved in distilled water. Another group was intravenously injected with 5--HDA--Na dissolved in physiological saline. One group was orally administered δ-DL emulsified in 5% aqueous arabic gum solution. One group was injected intravenously with lidocaine dissolved in physiological saline. For the respective routes of administration, control groups were administered the solvents used in administration of the test compounds. Thirty minutes after the oral administration and one minute after the intravenous injection, ouabain was infused into the jugular vein at a rate of 5 μg/kg/min until extrasystole, ventricular fibrillation and cardiac arrest appeared on a standard limb lead II of ECG. The results are shown in Table 3, with the time necessary for the respective symptoms to occur in the control groups taken as 100."}},
  "data": [
    {"compound": "CCCCCC(O)CCCC(=O)[O-].[Na+]", "note": "(centres unmarked)", "values": [
      {"measurement": "Percent occurrence of ventricular fibrillation", "setting": "[1]; 50 mg/kg, oral", "value": 50},
      {"measurement": "anti-arrhythmic potency compared with lidocaine (in words)", "setting": "[1]; 100 mg/kg oral vs lidocaine 10 mg/kg i.p.", "value": "more potent than lidocaine"},
      {"measurement": "anti-arrhythmic effects (in words)", "setting": "[1]; 100 mg/kg, oral", "value": "significant anti-arrhythmic effects"},
      {"measurement": "Percent occurrence of ventricular fibrillation", "setting": "[1]; 100 mg/kg, oral, *P < 0.05", "value": 30},
      {"measurement": "relative time for extrasystole to occur", "setting": "[2]; i.v., 20 mg/kg", "value": 146},
      {"measurement": "relative time for cardiac arrest to occur", "setting": "[2]; i.v., 20 mg/kg, *P < 0.05", "value": 132},
      {"measurement": "relative time for ventricular fibrillation to occur", "setting": "[2]; i.v., 20 mg/kg, *P < 0.05", "value": 140},
      {"measurement": "relative time for extrasystole to occur", "setting": "[2]; oral, 50 mg/kg", "value": 118},
      {"measurement": "relative time for cardiac arrest to occur", "setting": "[2]; oral, 50 mg/kg, *P < 0.05", "value": 134},
      {"measurement": "relative time for ventricular fibrillation to occur", "setting": "[2]; oral, 50 mg/kg, *P < 0.05", "value": 126},
      {"measurement": "relative time for extrasystole to occur", "setting": "[2]; oral, 100 mg/kg", "value": 160},
      {"measurement": "relative time for ventricular fibrillation to occur", "setting": "[2]; oral, 100 mg/kg, *P < 0.05", "value": 144},
      {"measurement": "relative time for cardiac arrest to occur", "setting": "[2]; oral, 100 mg/kg, *P < 0.05 where starred", "value": 136},
      {"measurement": "antiarrhythmic effects (in words)", "setting": "[2]; ouabain induced arrhythmia", "value": "significant antiarrhythmic effects"}
    ]}
  ]
}
